Reference: ChEMBL document CHEMBL3822445, “Histone demethylating agents as potential S-adenosyl-l-methionine-competitors” (Medchemcomm, 2016)
pIC50: −log10 of the molar value. The source made the active and inactive calls. The calls are words filed in the database; no cut-off is given here.

What was measured:
MCF7 [1] = test: Inhibition of DNA methylation in human MCF7 cells assessed as reduction in H3K27me3 levels at 15 uM after 48 hrs by Western blot analysis; type: cell-based
MCF7 [2] = test: Inhibition of DNA methylation in human MCF7 cells assessed as reduction in H3K9me3 levels at 15 uM after 48 hrs by Western blot analysis; type: cell-based
MCF7 [3] = test: Antiproliferative activity against human MCF7 cells after 48 to 72 hrs by MTT assay; type: functional, cell-based
[4] = Antiproliferative activity against human H460 cells after 48 to 72 hrs by MTT assay; type: functional, cell-based; conditions: NCI-H460
MSTO-211H = test: Antiproliferative activity against human MSTO-211H cells after 48 to 72 hrs by MTT assay; type: functional, cell-based
MCF7 [5] = test: Cell cycle arrest in human MCF7 cells assessed as accumulation at G2/M phase at 15 uM after 72 hrs by flow cytometry relative to control; type: functional
MCF7 [6] = test: Induction of apoptosis in human MCF7 cells assessed as viable cells at 15 uM after 48 hrs by AnnexinV-FITC staining based flow cytometry (reference value: 74.4 +/- 9.1 %); type: functional; conditions: MCF7, 48 h, read-out: Activity
MCF7 [7] = test: Induction of apoptosis in human MCF7 cells assessed as viable cells at 15 uM after 72 hrs by AnnexinV-FITC staining based flow cytometry (reference value: 60.5 +/- 6 %); type: functional; conditions: MCF7, 72 h, read-out: Activity
MCF7 [8] = test: Induction of apoptosis in human MCF7 cells assessed as early apoptotic cells at 15 uM after 48 hrs by AnnexinV-FITC staining based flow cytometry (reference value: 7.8 +/- 5.3 %); type: functional
MCF7 [9] = test: Induction of apoptosis in human MCF7 cells assessed as early apoptotic cells at 15 uM after 72 hrs by AnnexinV-FITC staining based flow cytometry (reference value: 20.1 +/- 7.3 %); type: functional
MCF7 [10] = test: Induction of apoptosis in human MCF7 cells assessed as late apoptotic cells at 15 uM after 48 hrs by AnnexinV-FITC staining based flow cytometry (reference value: 7.6 +/- 5.9 %); type: functional
MCF7 [11] = test: Induction of apoptosis in human MCF7 cells assessed as late apoptotic cells at 15 uM after 72 hrs by AnnexinV-FITC staining based flow cytometry (reference value: 11.8 +/- 2.2 %); type: functional
MCF7 [12] = test: Induction of apoptosis in human MCF7 cells assessed as necrotic cells at 15 uM after 48 hrs by AnnexinV-FITC staining based flow cytometry (reference value: 10.2 +/- 1.9 %); type: functional
MCF7 [13] = test: Induction of apoptosis in human MCF7 cells assessed as necrotic cells at 15 uM after 72 hrs by AnnexinV-FITC staining based flow cytometry (reference value: 7.6 +/- 1 %); type: functional
[14] = target: T1, Histone-lysine N-methyltransferase EHMT2 (Homo sapiens) (UniProt Q96KQ7); test: Inhibition of G9a in human MCF7 nuclear extracts assessed as reduction in H3K9 levels at 15 uM after 48 hrs; type: cell-based
T1 sequence (whole entry): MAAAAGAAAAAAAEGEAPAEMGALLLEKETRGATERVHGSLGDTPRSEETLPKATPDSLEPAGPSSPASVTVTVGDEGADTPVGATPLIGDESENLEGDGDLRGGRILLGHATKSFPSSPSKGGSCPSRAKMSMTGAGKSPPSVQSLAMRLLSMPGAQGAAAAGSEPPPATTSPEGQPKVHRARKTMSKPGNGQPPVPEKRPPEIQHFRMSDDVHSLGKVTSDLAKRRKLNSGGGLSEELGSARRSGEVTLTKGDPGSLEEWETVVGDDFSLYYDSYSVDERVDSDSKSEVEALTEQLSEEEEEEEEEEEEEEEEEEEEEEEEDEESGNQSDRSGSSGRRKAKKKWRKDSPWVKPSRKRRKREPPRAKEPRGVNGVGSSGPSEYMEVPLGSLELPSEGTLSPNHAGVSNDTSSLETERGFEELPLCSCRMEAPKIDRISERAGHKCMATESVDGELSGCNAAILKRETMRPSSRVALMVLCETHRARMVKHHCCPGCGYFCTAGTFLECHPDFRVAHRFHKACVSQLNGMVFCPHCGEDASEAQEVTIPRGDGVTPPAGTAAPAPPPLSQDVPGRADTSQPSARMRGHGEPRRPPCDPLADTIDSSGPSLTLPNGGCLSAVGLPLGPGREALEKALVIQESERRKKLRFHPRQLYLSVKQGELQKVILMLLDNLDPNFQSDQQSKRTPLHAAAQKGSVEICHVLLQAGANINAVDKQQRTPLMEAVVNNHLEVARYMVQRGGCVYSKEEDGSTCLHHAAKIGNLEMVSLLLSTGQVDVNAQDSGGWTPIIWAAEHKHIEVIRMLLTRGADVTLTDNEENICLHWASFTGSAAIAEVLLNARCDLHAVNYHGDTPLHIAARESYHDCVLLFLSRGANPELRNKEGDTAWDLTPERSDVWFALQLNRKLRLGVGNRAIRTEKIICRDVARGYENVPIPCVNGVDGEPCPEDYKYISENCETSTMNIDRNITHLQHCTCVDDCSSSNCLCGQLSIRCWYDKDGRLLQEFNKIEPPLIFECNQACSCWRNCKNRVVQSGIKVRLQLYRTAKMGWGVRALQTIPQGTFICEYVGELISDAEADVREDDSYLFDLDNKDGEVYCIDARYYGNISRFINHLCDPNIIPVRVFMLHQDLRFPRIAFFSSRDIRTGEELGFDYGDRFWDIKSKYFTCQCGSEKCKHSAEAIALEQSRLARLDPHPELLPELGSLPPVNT

[15] = target: T1, Histone-lysine N-methyltransferase EHMT2 (Homo sapiens); test: Inhibition of G9a in human MCF7 nuclear extracts assessed as reduction in H3K27 levels at 15 uM after 48 hrs; type: cell-based
[16] = Antiproliferative activity against human Ovarian cancer LA#83 cells assessed as cell survival at 20 uM after 72 hrs by MTT assay relative to control; type: functional; conditions: read-out: Survival
[17] = Antiproliferative activity against human Ovarian cancer DC#83 cells assessed as cell survival at 20 uM after 72 hrs by MTT assay relative to control; type: functional; conditions: read-out: Survival
[18] = Antiproliferative activity against human Ovarian cancer LA#110 cells assessed as cell survival at 20 uM after 72 hrs by MTT assay relative to control; type: functional; conditions: read-out: Survival
[19] = Antiproliferative activity against human Ovarian cancer DC#110 cells assessed as cell survival at 20 uM after 72 hrs by MTT assay relative to control; type: functional; conditions: read-out: Survival
MCF7 [20] = test: Inhibition of DNA methylation in human MCF7 cells assessed as melting temperature of RARbeta amplicon DNA by qPCR method (reference value: 77 degC); type: cell-based
MCF7 [21] = test: Inhibition of DNA methylation in human MCF7 cells assessed as decrease in 5-methylcytosine level by ELISA; type: cell-based
MCF7 [22] = test: Inhibition of DNA methylation in human MCF7 cells assessed as reduction in H3K9me3 levels at 0.5 to 1 uM after 48 hrs by Western blot analysis; type: cell-based
MCF7 [23] = test: Cell cycle arrest in human MCF7 cells assessed as accumulation at G0/G1 phase at 15 uM after 24 hrs by flow cytometry relative to control; type: functional
MCF7 [24] = test: Inhibition of DNA methylation in human MCF7 cells assessed as decrease in methylation of RARbeta DNA by qPCR method; type: cell-based
MCF7 [25] = test: Cell cycle arrest in human MCF7 cells assessed as accumulation at S phase at 15 uM after 24 to 72 hrs by flow cytometry relative to control; type: functional
MCF7 [26] = test: Inhibition of DNA methylation in human MCF7 cells assessed as reduction in H3K9me3 levels at 3 uM after 48 hrs by Western blot analysis; type: cell-based
MCF7 [27] = test: Inhibition of DNA methylation in human MCF7 cells assessed as reduction in H3K27me3 levels at 3 uM after 48 hrs by Western blot analysis; type: cell-based

| SMILES | inhibition (MCF7 [1]) | inhibition (MCF7 [2]) | pIC50 (MCF7 [3]) | pIC50 [4] | pIC50 (MSTO-211H) | viability at 15 µM (MCF7 [6]) | viability at 15 µM (MCF7 [7]) | Activity (MCF7 [8]) | Activity (MCF7 [9]) | Activity (MCF7 [10]) | Activity (MCF7 [11]) | Activity (MCF7 [12]) | Activity (MCF7 [13]) | inhibition [14] | inhibition [15] | viability at 20 µM [16] | viability at 20 µM [17] | viability at 20 µM [18] | viability at 20 µM [19] | inhibition (MCF7 [21]) | also measured |
| --- | --- | --- | --- | --- | --- | --- | --- | --- | --- | --- | --- | --- | --- | --- | --- | --- | --- | --- | --- | --- | --- |
| CN1c2ccccc2C(=O)N2CCc3c([nH]c4ccccc34)[C@H]21 | 60% | 100% | 5.27 | 6.59 | 6.27 | 51.5% | 41.9% | 11.9% | 16.8% | 27.6% | 33.2% | 9% | 8.1% | Active | inactive | 53.2% | 65.5% | 26.8% | 43.1% | Active | Activity (MCF7 [5]): 39.3%; Tm (MCF7 [20]): 75.5 °C |
| Nc1nccc2c1ncn2[C@@H]1C=C(CO)[C@@H](O)[C@H]1O | – | – | – | – | – | 32.2% | 52.6% | 12.8% | 17.4% | 16.1% | 24.1% | 7.8% | 5.9% | Active | Active | 42.5% | 63.5% | 30.4% | 13.6% | – | inhibition (MCF7 [22]): inactive |
| CCCCN1C(=O)[C@H]2Cc3c(n(CO)c4ccccc34)CN2C1=O | 20% | 40% | 4.51 | < 4.70 | < 4.70 | 71.1% | 52.1% | 8.3% | 25.5% | 12.1% | 15.2% | 8.5% | 7.2% | Active | Active | 67.8% | 101% | 56% | 82.2% | Active | Activity (MCF7 [23]): 3%; inhibition (MCF7 [24]): Active |
| CCCCN1C(=O)[C@@H]2Cc3c([nH]c4ccccc34)CN2C1=O | inactive | inactive | 4.43 | < 4.70 | < 4.70 | 69% | 47.7% | 13% | 27.9% | 13.8% | 17.7% | 4.2% | 6.7% | Active | – | 81.9% | 93.3% | 66.7% | 80.8% | Active | Activity (MCF7 [25]): 10.8%; inhibition (MCF7 [24]): inactive |
| COc1cc2nc(N3CCCN(C)CC3)nc(NC3CCN(Cc4ccccc4)CC3)c2cc1OC | – | – | – | – | – | 67.2% | 65.8% | 12.6% | 13.5% | 13.8% | 14.3% | 6.3% | 6.3% | Active | Active | 57% | 86.2% | 50.2% | 73% | – | inhibition (MCF7 [26]): 80%; inhibition (MCF7 [27]): 25% |
